# Measured values reported in ChEMBL document CHEMBL4138123, “Design, synthesis and biological evaluation of novel pyrazolochalcones as potential modulators of PI3K/Akt/mTOR pathway and inducers of apoptosis in breast cancer cells” (Eur J Med Chem, 2017).
# Columns and labels:
# Format in all cases: functional
# SR = assay: Cytotoxicity against human SR cells assessed as growth inhibition after 48 hrs by sulforhodamine B assay; conditions: for CC50: read-out: LC50 (the source's name)
# HCT-116 = assay: Cytotoxicity against human HCT116 cells assessed as growth inhibition after 48 hrs by sulforhodamine B assay; conditions: HCT-116, 48 h
# SW-620 = assay: Cytotoxicity against human SW620 cells assessed as growth inhibition after 48 hrs by sulforhodamine B assay; conditions: SW-620, 48 h
# IGROV-1 [1] = assay: Cytotoxicity against human IGROV1 cells assessed as growth inhibition after 48 hrs by sulforhodamine B assay; conditions: IGROV-1, 48 h
# UO-31 [2] = assay: Cytotoxicity against human UO31 cells assessed as growth inhibition after 48 hrs by sulforhodamine B assay; conditions: UO-31, 48 h
# Hs-578T = assay: Cytotoxicity against human Hs 578T cells assessed as growth inhibition after 48 hrs by sulforhodamine B assay
# SK-OV-3 = assay: Cytotoxicity against human SKOV3 cells assessed as cell growth at 0.01 uM after 48 hrs by sulforhodamine B assay relative to control; conditions: SK-OV-3, 48 h, read-out: Activity
# SF-539 = assay: Cytotoxicity against human SF539 cells assessed as cell growth at 0.01 uM after 48 hrs by sulforhodamine B assay relative to control; conditions: SF-539, 48 h, read-out: Activity
# HCT-15 = assay: Cytotoxicity against human HCT15 cells assessed as cell growth at 0.01 uM after 48 hrs by sulforhodamine B assay relative to control; conditions: HCT-15, 48 h, read-out: Activity
# HCC 2998 = assay: Cytotoxicity against human HCC2998 cells assessed as cell growth at 0.01 uM after 48 hrs by sulforhodamine B assay relative to control; conditions: HCC 2998, 48 h, read-out: Activity
# NCI-H322M = assay: Cytotoxicity against human NCI-H322M cells assessed as cell growth at 0.01 uM after 48 hrs by sulforhodamine B assay relative to control; conditions: read-out: Activity
# A549 [3] = assay: Cytotoxicity against human A549/ATCC cells assessed as cell growth at 0.01 uM after 48 hrs by sulforhodamine B assay relative to control; conditions: A549, 48 h, read-out: Activity
# UO-31 [4] = assay: Cytotoxicity against human UO31 cells assessed as cell growth at 0.01 uM after 48 hrs by sulforhodamine B assay relative to control; conditions: UO-31, 48 h, read-out: Activity
# BT-549 = assay: Cytotoxicity against human BT549 cells assessed as cell growth at 0.01 uM after 48 hrs by sulforhodamine B assay relative to control; conditions: BT-549, 48 h, read-out: Activity
# HL-60(TB) = assay: Cytotoxicity against human HL-60(TB) cells assessed as cell growth at 0.1 uM after 48 hrs by sulforhodamine B assay relative to control; conditions: HL-60, 48 h, read-out: Activity
# MOLT-4 = assay: Cytotoxicity against human MOLT4 cells assessed as cell growth at 0.1 uM after 48 hrs by sulforhodamine B assay relative to control; conditions: MOLT-4, 48 h, read-out: Activity
# A549 [5] = assay: Cytotoxicity against human A549/ATCC cells assessed as cell growth at 0.1 uM after 48 hrs by sulforhodamine B assay relative to control; conditions: A549, 48 h, read-out: Activity
# NCI-H226 = assay: Cytotoxicity against human NCI-H226 cells assessed as cell growth at 0.1 uM after 48 hrs by sulforhodamine B assay relative to control; conditions: NCI-H226, 48 h, read-out: Activity
# KM12 = assay: Cytotoxicity against human KM12 cells assessed as cell growth at 0.1 uM after 48 hrs by sulforhodamine B assay relative to control; conditions: KM12, 48 h, read-out: Activity
# U-251 = assay: Cytotoxicity against human U251 cells assessed as cell growth at 0.1 uM after 48 hrs by sulforhodamine B assay relative to control; conditions: U-251, 48 h, read-out: Activity
# A498 = assay: Cytotoxicity against human A498 cells assessed as cell growth at 0.1 uM after 48 hrs by sulforhodamine B assay relative to control; conditions: A498, 48 h, read-out: Activity
# RPMI-8226 [6] = assay: Cytotoxicity against human RPMI8226 cells assessed as cell growth at 1 uM after 48 hrs by sulforhodamine B assay relative to control; conditions: RPMI-8226, 48 h, read-out: Activity
# HOP-62 [7] = assay: Cytotoxicity against human HOP62 cells assessed as cell growth at 1 uM after 48 hrs by sulforhodamine B assay relative to control; conditions: HOP-62, 48 h, read-out: Activity
# NCI-H23 = assay: Cytotoxicity against human NCI-H23 cells assessed as cell growth at 1 uM after 48 hrs by sulforhodamine B assay relative to control; conditions: NCI-H23, 48 h, read-out: Activity
# NCI-H522 = assay: Cytotoxicity against human NCI-H522 cells assessed as cell growth at 1 uM after 48 hrs by sulforhodamine B assay relative to control; conditions: NCI-H522, 48 h, read-out: Activity
# RPMI-8226 [8] = assay: Cytotoxicity against human RPMI8226 cells assessed as cell growth at 10 uM after 48 hrs by sulforhodamine B assay relative to control; conditions: RPMI-8226, 48 h, read-out: Activity
# HOP-62 [9] = assay: Cytotoxicity against human HOP62 cells assessed as cell growth at 10 uM after 48 hrs by sulforhodamine B assay relative to control; conditions: HOP-62, 48 h, read-out: Activity
# NCI-H460 = assay: Cytotoxicity against human NCI-H460 cells assessed as cell growth at 10 uM after 48 hrs by sulforhodamine B assay relative to control; conditions: NCI-H460, 48 h, read-out: Activity
# SNB-19 = assay: Cytotoxicity against human SNB19 cells assessed as cell growth at 10 uM after 48 hrs by sulforhodamine B assay relative to control; conditions: SNB-19, 48 h, read-out: Activity
# Malme-3M = assay: Cytotoxicity against human MALME-3M cells assessed as cell growth at 10 uM after 48 hrs by sulforhodamine B assay relative to control; conditions: read-out: Activity
# M14 = assay: Cytotoxicity against human M14 cells assessed as cell growth at 10 uM after 48 hrs by sulforhodamine B assay relative to control; conditions: M14, 48 h, read-out: Activity
# SK-MEL-5 = assay: Cytotoxicity against human SK-MEL-5 cells assessed as cell growth at 10 uM after 48 hrs by sulforhodamine B assay relative to control; conditions: SK-MEL-5, 48 h, read-out: Activity
# IGROV-1 [10] = assay: Cytotoxicity against human IGROV1 cells assessed as cell growth at 100 uM after 48 hrs by sulforhodamine B assay relative to control; conditions: IGROV-1, 48 h, read-out: Activity
# 786-0 = assay: Cytotoxicity against human 786-0 cells assessed as cell growth at 100 uM after 48 hrs by sulforhodamine B assay relative to control; conditions: 786-0, 48 h, read-out: Activity
# T47D = assay: Cytotoxicity against human T47D cells assessed as cell growth at 100 uM after 48 hrs by sulforhodamine B assay relative to control; conditions: read-out: Activity
smiles,measurement,setting,value
COc1ccc(-c2cc(/C=C/C(=O)c3cc(OC)c(OC)c(OC)c3)[nH]n2)cc1OC,GI50,SR,0.2 µM
same,TGI,SR,2.26 µM
same,CC50,SR,> 100 µM
same,GI50,HCT-116,0.42 µM
same,LC50,HCT-116,5.18 µM
same,TGI,HCT-116,1.79 µM
same,GI50,SW-620,1.5 µM
same,"LC50 (lethal concentration, 50% net cell kill)",SW-620,> 100 µM
same,TGI,SW-620,4.16 µM
same,GI50,IGROV-1 [1],2.72 µM
same,LC50,IGROV-1 [1],46.7 µM
same,TGI,IGROV-1 [1],8.61 µM
same,GI50,UO-31 [2],1.27 µM
same,LC50,UO-31 [2],5.29 µM
same,TGI,UO-31 [2],2.59 µM
same,GI50,Hs-578T,2.91 µM
same,LC50,Hs-578T,> 100 µM
same,TGI,Hs-578T,22.1 µM
same,growth at 0.01 µM,SK-OV-3,97%
same,growth at 0.01 µM,SF-539,95%
same,growth at 0.01 µM,HCT-15,99%
same,growth at 0.01 µM,HCC 2998,95%
same,growth at 0.01 µM,NCI-H322M,93%
same,growth at 0.01 µM,A549 [3],101%
same,growth at 0.01 µM,UO-31 [4],88%
same,growth at 0.01 µM,BT-549,96%
same,growth at 0.1 µM,HL-60(TB),93%
same,growth at 0.1 µM,MOLT-4,95%
same,growth at 0.1 µM,A549 [5],98%
same,growth at 0.1 µM,NCI-H226,90%
same,growth at 0.1 µM,KM12,92%
same,growth at 0.1 µM,U-251,92%
same,growth at 0.1 µM,A498,89%
same,growth at 1 µM,RPMI-8226 [6],11%
same,growth at 1 µM,HOP-62 [7],71%
same,growth at 1 µM,NCI-H23,87%
same,growth at 1 µM,NCI-H522,71%
same,growth at 10 µM,RPMI-8226 [8],-38%
same,growth at 10 µM,HOP-62 [9],-57%
same,growth at 10 µM,NCI-H460,-41%
same,growth at 10 µM,SNB-19,-29%
same,growth at 10 µM,Malme-3M,-25%
same,growth at 10 µM,M14,-70%
same,growth at 10 µM,SK-MEL-5,-99%
same,growth at 100 µM,IGROV-1 [10],-72%
same,growth at 100 µM,786-0,-90%
same,growth at 100 µM,T47D,-47%
COc1cc(C(=O)/C=C/c2cc(-c3cc(OC)c(OC)c(OC)c3)n[nH]2)cc(OC)c1OC,TGI,SR,> 100 µM
same,CC50,SR,> 100 µM
same,LC50,HCT-116,5.12 µM
same,TGI,HCT-116,2.59 µM
same,"LC50 (lethal concentration, 50% net cell kill)",SW-620,5.97 µM
same,TGI,SW-620,3.08 µM
same,LC50,IGROV-1 [1],33.1 µM
same,TGI,IGROV-1 [1],10.2 µM
same,LC50,UO-31 [2],5.16 µM
same,TGI,UO-31 [2],2.48 µM
same,LC50,Hs-578T,> 100 µM
same,TGI,Hs-578T,53.9 µM
same,growth at 0.01 µM,SK-OV-3,100%
same,growth at 0.01 µM,SF-539,92%
same,growth at 0.01 µM,HCT-15,95%
same,growth at 0.01 µM,HCC 2998,102%
same,growth at 0.01 µM,NCI-H322M,96%
same,growth at 0.01 µM,A549 [3],97%
same,growth at 0.01 µM,UO-31 [4],90%
same,growth at 0.01 µM,BT-549,102%
same,growth at 0.1 µM,HL-60(TB),101%
same,growth at 0.1 µM,MOLT-4,112%
same,growth at 0.1 µM,A549 [5],94%
same,growth at 0.1 µM,NCI-H226,93%
same,growth at 0.1 µM,KM12,103%
same,growth at 0.1 µM,U-251,94%
same,growth at 0.1 µM,A498,90%
same,growth at 1 µM,RPMI-8226 [6],17%
same,growth at 1 µM,HOP-62 [7],78%
same,growth at 1 µM,NCI-H23,97%
same,growth at 1 µM,NCI-H522,29%
same,growth at 10 µM,RPMI-8226 [8],-38%
same,growth at 10 µM,HOP-62 [9],-91%
same,growth at 10 µM,NCI-H460,-51%
same,growth at 10 µM,SNB-19,-62%
same,growth at 10 µM,Malme-3M,-57%
same,growth at 10 µM,M14,-90%
same,growth at 10 µM,SK-MEL-5,-98%
same,growth at 100 µM,IGROV-1 [10],-97%
same,growth at 100 µM,786-0,-98%
same,growth at 100 µM,T47D,-92%
COc1ccc(C(=O)/C=C/c2cc(-c3cc(OC)c(OC)c(OC)c3)n[nH]2)cc1OC,TGI,SR,> 100 µM
same,CC50,SR,> 100 µM
same,TGI,HCT-116,2.63 µM
same,"LC50 (lethal concentration, 50% net cell kill)",SW-620,6.55 µM
same,TGI,SW-620,2.99 µM
same,LC50,IGROV-1 [1],6.48 µM
same,TGI,IGROV-1 [1],3.41 µM
same,LC50,UO-31 [2],5.17 µM
same,TGI,UO-31 [2],2.57 µM
same,LC50,Hs-578T,> 100 µM
same,TGI,Hs-578T,8.2 µM
same,growth at 0.01 µM,SK-OV-3,100%
same,growth at 0.01 µM,SF-539,97%
same,growth at 0.01 µM,HCT-15,97%
same,growth at 0.01 µM,HCC 2998,93%
same,growth at 0.01 µM,NCI-H322M,94%
same,growth at 0.01 µM,A549 [3],98%
same,growth at 0.01 µM,UO-31 [4],86%
same,growth at 0.01 µM,BT-549,95%
same,growth at 0.1 µM,HL-60(TB),94%
same,growth at 0.1 µM,MOLT-4,98%
same,growth at 0.1 µM,A549 [5],98%
same,growth at 0.1 µM,NCI-H226,97%
same,growth at 0.1 µM,KM12,92%
same,growth at 0.1 µM,U-251,95%
same,growth at 0.1 µM,A498,86%
same,growth at 1 µM,RPMI-8226 [6],2%
same,growth at 1 µM,HOP-62 [7],77%
same,growth at 1 µM,NCI-H23,93%
same,growth at 1 µM,NCI-H522,-63%
same,growth at 10 µM,RPMI-8226 [8],-50%
same,growth at 10 µM,HOP-62 [9],-97%
same,growth at 10 µM,NCI-H460,-64%
same,growth at 10 µM,SNB-19,-80%
same,growth at 10 µM,Malme-3M,-82%
same,growth at 10 µM,M14,-72%
same,growth at 10 µM,SK-MEL-5,-98%
same,growth at 100 µM,IGROV-1 [10],-73%
same,growth at 100 µM,786-0,-84%
same,growth at 100 µM,T47D,-46%
